Experimental findings from patent publication US20160185797A1, “ALKYNYL ALCOHOLS AND METHODS OF USE” (Genentech, Inc., priority 2013, published 2016) are described below.

Assay [1] deals with p52 (NF-kB2) nuclear translocation in HeLa cells. As to the kind of experiment: p52 (NF-kB2) nuclear translocation assay in HeLa cells, anti-lymphotoxin beta receptor antibody stimulated (non-classical NF-kB signaling), high content imaging. It counts as cell-based. The conditions noted are these: Homo sapiens, 100 ng/mL anti-lymphotoxin beta receptor antibody for 5 hours, read-out: p52 HeLa Transloc Assay (IC50). In a few lines: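 HeLa cells in 10% FBS medium were treated with compound (0.2% DMSO final) and stimulated with 100 ng/mL anti-lymphotoxin beta receptor antibody for 5 h. Fixed cells were immunostained for p52 and imaged with DRAQ5 nuclear stain. Translocation is the nuclear to cytoplasmic intensity ratio, […].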

In assay [2] the target is T1, nuclear factor-kappa B (NF-kB)-inducing kinase (NIK) (Homo sapiens, UniProt Q99558).
T1 construct: made in house; host or cells: baculovirus-infected insect cells
T1 sequence (Q99558 whole entry): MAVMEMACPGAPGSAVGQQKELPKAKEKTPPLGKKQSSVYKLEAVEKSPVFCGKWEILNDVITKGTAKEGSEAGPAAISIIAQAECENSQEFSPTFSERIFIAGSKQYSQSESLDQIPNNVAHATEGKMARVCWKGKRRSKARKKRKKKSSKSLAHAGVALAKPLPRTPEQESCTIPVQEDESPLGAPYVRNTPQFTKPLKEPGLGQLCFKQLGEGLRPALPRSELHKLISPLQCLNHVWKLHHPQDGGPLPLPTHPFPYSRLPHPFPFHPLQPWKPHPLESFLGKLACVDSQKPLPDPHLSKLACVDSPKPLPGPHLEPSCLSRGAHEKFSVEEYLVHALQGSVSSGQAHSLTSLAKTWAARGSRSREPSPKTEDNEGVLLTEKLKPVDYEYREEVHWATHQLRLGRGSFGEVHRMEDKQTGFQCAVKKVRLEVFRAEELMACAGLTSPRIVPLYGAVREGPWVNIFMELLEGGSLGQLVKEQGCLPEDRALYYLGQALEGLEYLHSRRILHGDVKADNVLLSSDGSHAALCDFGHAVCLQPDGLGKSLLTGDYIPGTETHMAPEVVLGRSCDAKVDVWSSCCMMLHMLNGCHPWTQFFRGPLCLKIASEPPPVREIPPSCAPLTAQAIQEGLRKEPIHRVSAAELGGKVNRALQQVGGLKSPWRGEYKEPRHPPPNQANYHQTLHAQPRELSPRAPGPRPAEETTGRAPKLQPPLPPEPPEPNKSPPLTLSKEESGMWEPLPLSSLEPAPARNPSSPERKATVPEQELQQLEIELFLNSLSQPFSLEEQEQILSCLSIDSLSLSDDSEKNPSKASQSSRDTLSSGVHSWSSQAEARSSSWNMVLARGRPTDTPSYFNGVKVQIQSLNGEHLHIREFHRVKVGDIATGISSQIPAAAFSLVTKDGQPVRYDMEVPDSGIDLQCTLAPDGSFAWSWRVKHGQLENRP
Description: NIK enzyme inhibition assay (Transcreener ADP fluorescence polarization, NIK ADP-FP). In kind it is biochemical. A general note: Polarisation of emitted light reports the rotation of a fluorescent probe.

Assay [3] relates to REL-A (p65) nuclear translocation in HeLa cells. Description: REL-A (p65) nuclear translocation assay in HeLa cells, TNF-α stimulated (classical NF-kB signaling), high content imaging. The conditions noted are these: Homo sapiens, HeLa, compound 4.5 h, then 10 ng/mL TNF-α for 30 minutes, read-out: REL-A HeLa Transloc Assay (IC50). In kind it is cell-based. In outline:
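HeLa cells in medium with 10% fetal bovine serum were exposed to compounds (0.2% DMSO final) for 4.5 hours, then stimulated with 10 ng/mL TNF-α for 30 minutes. After fixation in 4% paraformaldehyde and permeabilization with 0.1% Triton X-100, cells were stained with 400 ng/mL anti-REL-A (p65) antibody, an Alexa488 secondary and DRAQ5. Opera imaging quantified the nuclear-to-cytoplasmic signal ratio to give IC50.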

One may read the IC50 as the concentration that inhibits the measured activity by half. As usually defined, the Ki is a dissociation constant, usually derived from enzyme kinetics or from competition with a known ligand. Higher therefore signals a looser hold on the target. Consider `CN1CC[C@@](O)(C#Cc2cccc(-c3ncc(NCC4(C)COC4)c(C(N)=O)n3)c2)C1=O` [Example 105, 2-[3-[2-[(3R)-3-hydroxy-1-methyl-2-oxo-pyrrolidin-3-yl]ethynyl]phenyl]-5-[(3-methyloxetan-3-yl)methylamino]pyrimidine-4-carboxamide], for which the IC50 was 73.3 nM in assay [1] and no less than 2000 nM in assay [3]. The molecule further had a Ki in assay [2] of 0.35 nM.

For `CN1CC[C@@](O)(C#Cc2cccc(-c3nc(OC4COC4)c(N)c(C(N)=O)n3)c2)C1=O` [Example 106, 5-amino-2-[3-[2-[(3R)-3-hydroxy-1-methyl-2-oxo-pyrrolidin-3-yl]ethynyl]phenyl]-6-(oxetan-3-yloxy)pyrimidine-4-carboxamide], the IC50 in assay [1] was 70 nM; in assay [3], no less than 2000 nM. Besides, in assay [2], the Ki stood at 0.25 nM.

For the molecule `CN1CC[C@@](O)(C#Cc2cccc(-c3nc(OC4CCOCC4)c(N)c(C(N)=O)n3)c2)C1=O` [Example 107, 5-amino-2-[3-[2-[(3R)-3-hydroxy-1-methyl-2-oxo-pyrrolidin-3-yl]ethynyl]phenyl]-6-tetrahydropyran-4-yloxy-pyrimidine-4-carboxamide], the IC50 in assay [1] is 269 nM; in assay [3], no less than 2000 nM. For the same molecule, affinity in assay [2] was put at a Ki of 0.4 nM.

Consider `COCCOc1nc(-c2cccc(C#C[C@]3(O)CCN(C)C3=O)c2)nc(C(N)=O)c1N` [Example 108, 5-amino-2-[3-[2-[(3R)-3-hydroxy-1-methyl-2-oxo-pyrrolidin-3-yl]ethynyl]phenyl]-6-(2-methoxyethoxy)pyrimidine-4-carboxamide], for which the IC50 was 213 nM in assay [1] and no less than 2000 nM in assay [3]. Also, the Ki in assay [2] stood at 0.65 nM.

As to `COCCNc1cnc(-c2cc(C#C[C@]3(O)CCN(C)C3=O)ccc2F)nc1C(N)=O` [Example 109, 2-[2-fluoro-5-[2-[(3R)-3-hydroxy-1-methyl-2-oxo-pyrrolidin-3-yl]ethynyl]phenyl]-5-(2-methoxyethylamino) pyrimidine-4-carboxamide], the IC50 in assay [1] was 83.1 nM; in assay [3], no less than 2000 nM. The same molecule displayed a Ki in assay [2] of 0.28 nM.

With `CN1CC[C@@](O)(C#Cc2ccc(F)c(-c3ncc(N)c(C(N)=O)n3)c2)C1=O` [Example 110, 5-amino-2-[2-fluoro-5-[2-[(3R)-3-hydroxy-1-methyl-2-oxo-pyrrolidin-3-yl]ethynyl]phenyl]pyrimidine-4-carboxamide], the figures for the IC50 in assay [1] and in assay [3] were 84.3 nM and no less than 2000 nM, respectively. In assay [2], this molecule came in with a Ki of 0.14 nM.

Take `Cc1ccnn1-c1cc(C(N)=O)nc(-c2ccc(F)c(C#C[C@]3(O)CCN(C)C3=O)c2)n1` [Example 111, 2-[4-fluoro-3-[2-[(3R)-3-hydroxy-1-methyl-2-oxo-pyrrolidin-3-yl]ethynyl]phenyl]-6-(5-methylpyrazol-1-yl)pyrimidine-4-carboxamide]: the concentration for half-maximal inhibition (IC50) in assay [1] was 75.8 nM; in assay [3], no less than 2000 nM. For the same molecule, the Ki in assay [2] worked out at 0.37 nM.

With `CN1CC[C@@](O)(C#Cc2cccc(-c3nc(C(N)=O)c(N)n4ccnc34)c2)C1=O` [Example 112, 5-amino-8-[3-[2-[(3R)-3-hydroxy-1-methyl-2-oxo-pyrrolidin-3-yl]ethynyl]phenyl]imidazo[1,2-a] pyrazine-6-carboxamide], the IC50 is 88.8 nM in assay [1] and no less than 20000 nM in assay [3]. Also, in assay [2], the Ki turned out to be 0.05 nM.

As for `CN1CC[C@@](O)(C#Cc2cccc(-c3nc(C(N)=O)cn4c(C(F)(F)F)cnc34)c2)C1=O` [Example 113, 8-[3-[2-[(3R)-3-hydroxy-1-methyl-2-oxo-pyrrolidin-3-yl]ethynyl]phenyl]-3-(trifluoromethyl)imidazo [1,2-a]pyrazine-6-carboxamide], the IC50 in assay [1] was 212 nM; in assay [3], no less than 2000 nM. In addition, in assay [2], the Ki was 2.12 nM.

As for `CCn1ncc2c(-c3cccc(C#C[C@]4(O)CCN(C)C4=O)c3)nc(C(N)=O)cc21` [Example 114, 1-ethyl-4-[3-[2-[(3R)-3-hydroxy-1-methyl-2-oxo-pyrrolidin-3-yl]ethynyl]phenyl]pyrazolo[4,3-c] pyridine-6-carboxamide], the IC50 was 211 nM in assay [1] and no less than 2000 nM in assay [3]. In assay [2], this molecule had a Ki of 1.48 nM.

With `CN1CC[C@@](O)(C#Cc2cc(-c3nc(C(N)=O)c(N)cc3F)ccc2F)C1=O` [Example 116, 3-amino-5-fluoro-6-[4-fluoro-3-[2-[(3R)-3-hydroxy-1-methyl-2-oxo-pyrrolidin-3-yl]ethynyl]phenyl]pyridine-2-carboxamide], the IC50 in assay [1] came to 11.6 nM; in assay [3] it was 12400 nM. For the same molecule, the Ki in assay [2] is 0.05 nM.

For the molecule `CN1CC[C@@](O)(C#Cc2ccc(F)c(-c3cnc(N)c(C(N)=O)n3)c2)C1=O` [Example 117, 3-amino-6-[2-fluoro-5-[2-[(3R)-3-hydroxy-1-methyl-2-oxo-pyrrolidin-3-yl]ethynyl]phenyl] pyrazine-2-carboxamide], the 50% inhibitory concentration (IC50) was 12.5 nM in assay [1] and no less than 20000 nM in assay [3]. This molecule gave an inhibition constant Ki in assay [2] of 0.05 nM.

`CN1CC[C@@](O)(C#Cc2cc(-c3ccc(N)c(C(N)=O)n3)c(F)cc2F)C1=O` [Example 118, 3-amino-6-[2,4-difluoro-5-[2-[(3R)-3-hydroxy-1-methyl-2-oxo-pyrrolidin-3-yl]ethynyl]phenyl]pyridine-2-carboxamide]: the values for the IC50 in assay [1] and in assay [3] were 19 nM and no less than 2000 nM, respectively. In assay [2], this molecule returned a Ki of 0.05 nM.

Take `CCNc1ccc(-c2ccc(C#N)c(C#C[C@]3(O)CCN(C)C3=O)c2)nc1C(N)=O` [Example 119, 6-[4-cyano-3-[2-[(3R)-3-hydroxy-1-methyl-2-oxo-pyrrolidin-3-yl]ethynyl]phenyl]-3-(ethylamino) pyridine-2-carboxamide]: the IC50 in assay [1] was 108 nM; in assay [3] it was no less than 2000 nM. In assay [2], this molecule came in with a Ki of 0.1 nM.

For the molecule `CN1CC[C@@](O)(C#Cc2cccc(-c3nc(C(N)=O)c(NCc4ccon4)cc3F)c2)C1=O` [Example 120, 5-fluoro-6-[3-[2-[(3R)-3-hydroxy-1-methyl-2-oxo-pyrrolidin-3-yl]ethynyl]phenyl]-3-(isoxazol-3-ylmethylamino)pyridine-2-carboxamide], the IC50 is 26.6 nM in assay [1] and no less than 2000 nM in assay [3]. The same molecule returned a Ki in assay [2] of 0.33 nM.

Take `CN1CC[C@@](O)(C#Cc2cccc(-c3cc(OC4COC4)cc(C(N)=O)n3)c2)C1=O` [Example 122, 6-[3-[2-[(3R)-3-hydroxy-1-methyl-2-oxo-pyrrolidin-3-yl]ethynyl]phenyl]-4-(oxetan-3-yloxy) pyridine-2-carboxamide]: the IC50 was 226 nM in assay [1] and no less than 2000 nM in assay [3]. This molecule also displayed a Ki in assay [2] of 0.81 nM.

With `Cc1cc(C(N)=O)nc(-c2cccc(C#C[C@]3(O)CCN(C)C3=O)c2)c1` [Example 123, 6-[3-[2-[(3R)-3-hydroxy-1-methyl-2-oxo-pyrrolidin-3-yl]ethynyl]phenyl]-4-methyl-pyridine-2-carboxamide], the IC50 in assay [1] was 79.4 nM; in assay [3], no less than 2000 nM. In assay [2], this molecule yielded a Ki of 0.09 nM.

Regarding `CN1CC[C@@](O)(C#Cc2cccc(-c3cc(N)cc(C(N)=O)n3)c2)C1=O` [Example 124, 4-amino-6-[3-[2-[(3R)-3-hydroxy-1-methyl-2-oxo-pyrrolidin-3-yl]ethynyl]phenyl]pyridine-2-carboxamide], the IC50 in assay [1] is 300 nM; in assay [3], no less than 2000 nM. The molecule further yielded a Ki in assay [2] of 0.05 nM.

As for `Cc1ccnn1-c1cc(C(N)=O)nc(-c2cccc(C#C[C@]3(O)CCN(C)C3=O)c2)c1` [Example 125, 6-[3-[2-[(3R)-3-hydroxy-1-methyl-2-oxo-pyrrolidin-3-yl]ethynyl]phenyl]-4-(5-methylpyrazol-1-yl) pyridine-2-carboxamide], the IC50 in assay [1] is 84.2 nM; in assay [3], no less than 2000 nM. The affinity in assay [2] corresponds to a Ki of 1.29 nM.

In the case of `Cc1ccc(-c2cc(C(N)=O)nc(-c3cccc(C#C[C@]4(O)CCN(C)C4=O)c3)c2)cn1` [Example 126, 6-[3-[2-[(3R)-3-hydroxy-1-methyl-2-oxo-pyrrolidin-3-yl]ethynyl]phenyl]-4-(6-methyl-3-pyridyl)pyridine-2-carboxamide], the IC50 in assay [1] is 122 nM; in assay [3] it was no less than 2000 nM. Besides, the Ki in assay [2] was determined as 0.05 nM.

On to `CN1CC[C@@](O)(C#Cc2cccc(-c3cc(-c4cnccn4)cc(C(N)=O)n3)c2)C1=O` [Example 127, 6-[3-[2-[(3R)-3-hydroxy-1-methyl-2-oxo-pyrrolidin-3-yl]ethynyl]phenyl]-4-pyrazin-2-yl-pyridine-2-carboxamide], for which the IC50 in assay [1] was 183 nM; in assay [3] it was no less than 2000 nM. In assay [2], this molecule had a Ki of 0.08 nM.

Regarding `COCCNc1ccc(-c2cccc(C#C[C@]3(O)CCN(C)C3=O)c2)nc1C(N)=O` [Example 128, 6-[3-[2-[(3R)-3-hydroxy-1-methyl-2-oxo-pyrrolidin-3-yl]ethynyl]phenyl]-3-(2-methoxyethylamino) pyridine-2-carboxamide], the IC50 was 27.2 nM in assay [1] and no less than 2000 nM in assay [3]. In assay [2], this molecule yielded a Ki of 0.05 nM.

As to `CN1CC[C@@](O)(C#Cc2cccc(-c3cc(-c4ncccn4)cc(C(N)=O)n3)c2)C1=O` [Example 129, 6-[3-[2-[(3R)-3-hydroxy-1-methyl-2-oxo-pyrrolidin-3-yl]ethynyl]phenyl]-4-pyrimidin-2-yl-pyridine-2-carboxamide], the values for the half-maximal inhibitory concentration (IC50) in assay [1] and in assay [3] were 155 nM and no less than 2000 nM, respectively. For the same molecule, affinity in assay [2] was put at a Ki of 0.3 nM.
